Assays:
Assay type in all cases: cell-based, human
COV434 cells = assay: Intracellular ROS/RNS assessment, DCFH-DA probe; conditions: COV434, 10 μM, 2 h immediately after addition
Procedure: (§1) The assay for the evaluation of the levels of ROS/RNS was based on the work of Bak, et al.. All cell lines were cultured in black 96-well plates at a density of 5 × 10^4 cells/well and allowed to adhere for 24 h. After adherence, the cells were incubated with 2′,7′-dichlorodihydrofluorescein diacetate (DCFH-DA) (25 μM) for 1 h at 37 °C in the dark. The DCFH-DA probe allows the detection of intracellular ROS, more specifically H2O2, HO^● and ROO^●, and RNS, more specifically, ^●NO and ONOO^− [51]. The cells were then treated with 10 μM of either Mito6_TPP, Mito6_picol., or Mito6_isoq. The stress inducer H2O2 (200 μM) was used as the positive control. The fluorescence provided by the probe was measured immediately and every 5 min for 2 h at 37 °C using a BioTek Synergy HTX Multi-Mode Microplate Fluorimeter equipped with BioTek Gen5 Data Collection and Analysis Software (BioTek Instruments, Winooski, VT, USA) (excitation: 485 nm; emission: 530 nm).

Hec50co cells = assay: Intracellular ROS/RNS assessment, DCFH-DA probe; conditions: 10 μM, 2 h immediately after addition
Procedure: as §1

Ishikawa cells = assay: Intracellular ROS/RNS assessment, DCFH-DA probe; conditions: 10 μM, 2 h immediately after addition
Procedure: as §1

[1] = test system: Ishikawa, Hec50co, COV434, and HFF-1 cells; assay: Cell viability (MTT and NR assays), statements over all cell lines
Procedure: The Ishikawa, Hec50co, COV434, and HFF-1 cell lines were plated at a density of 5 × 10^4 cells/well in transparent 96-well plates. After 24 h, the cells were treated with Mito6_TPP, Mito6_picol., or Mito6_isoq. (0.01–100 μM) and incubated at 37 °C with 5% CO2 for 24, 48, or 72 h. […] The conditions of the methylthiazolyldiphenyl-tetrazolium bromide (MTT) assay were adapted from the work of Banerjee et al.. Briefly, MTT was added to a final concentration of 0.5 mg/mL, and the cells were incubated for 3 h at 37 °C with 5% CO2. After the 3 h, purple MTT formazan crystals were dissolved by agitation for 15 min in a solution of DMSO/isopropanol (ratio 3:1) and quantified spectrophotometrically at 540 nm. The neutral red (NR) assay conditions were based on the work developed by Repetto et al.. Briefly, after the incubation time, cells were incubated with NR at 40 μg/mL in an FBS-free cell medium for 3 h. The cells were then incubated with a solution of 50% ethanol (96% v/v), 49% deionized water, and 1% glacial acetic acid, with shaking for 15 min. The NR extracted from the cells was measured at 540 nm. […] For all assays, the absorbance was read using a BioTek Synergy HTX Multi-Mode Microplate Reader equipped with BioTek Gen5 Data Collection and Analysis Software (BioTek Instruments, Winooski, VT, USA).

Row | Structure (SMILES) | Intracellular ROS levels vs untreated cells (COV434 cells) | Intracellular ROS levels vs untreated cells (Hec50co cells) | Intracellular ROS levels vs untreated cells (Ishikawa cells) | Lowest concentration inducing a significant decrease in cell viability [1]
1 | O=C(/C=C/c1ccc(O)c(O)c1)NCCCCCCCCCC[P+](c1ccccc1)(c1ccccc1)c1ccccc1 [Mito6_TPP] | faster and more accentuated decrease in ROS levels | faster and more accentuated decrease in ROS levels | faster and more accentuated decrease in ROS levels | 1 µM
2 | Cc1cc[n+](CCCCCCCCCCNC(=O)/C=C/c2ccc(O)c(O)c2)cc1 [Mito6_picol.] | no effects |  |  | 

Source: article PMC9030827, “In Vitro Effects of Mitochondria-Targeted Antioxidants in a Small-Cell Carcinoma of the Ovary of Hypercalcemic Type and in Type 1 and Type 2 Endometrial Cancer” (Biomedicines, 2022)
